In US5028629A, “5-Lipoxygenase inhibitors” (Eli Lilly and Company, priority 1990, dated 1991):
Read-outs that look alike come from different tables or passages of the source.

Key:
[1] = system: polymorphonuclear leukocytes (PMNs); test: H-PMN Assay: LTB4 content of supernatant of A23187-stimulated human PMNs by radioimmunoassay; assay type: cell-based; details: Table II, human PMNs, calcium ionophore A23187, 37° C. for 10 minutes, LTB4 by radioimmunoassay
Experimental: Sodium citrated venous blood is drawn from normal human subjects. After centrifugation at 300 ×g for 15 minutes, the platelet-rich layer of plasma is discarded and an equal volume of Hanks' balanced salt solution (HBSS) is added to the enriched cell fraction. This platelet-depleted cell suspension is then layered on an equal volume of Ficoll-Paque. After centrifugation for 40 minutes at 300 ×g, the bottom layer containing erythrocytes and polymorphonuclear leukocytes (PMNs) is diluted with two volumes of a 0.2% methocel solution. The erythrocytes are sedimented upon standing for 15 minutes, and the supernatant containing the PMNs is aspirated and centrifuged at 300 ×g, for 5 minutes. The cell pellet is then exposed to 0.2% NaCl for 30 seconds to lyse any remaining erythrocytes, and the ionic strength of the suspension is readjusted to 0.9% with NaCl. The PMNs are recovered by centrifugation at 300 ×g for 5 minutes and are suspended in HBSS to a concentration of 2 ×10^6 cells/ml.
The test compounds are dissolved in and diluted with dimethylsulfoxide (DMSO) which also contains 2×10^-6 M of the calcium ionophore, A23187. To 1 ml of the PMN suspension, 10 μl of the DMSO solution is added, and the mixture is incubated at 37° C. for 10 minutes. The PMNs are rapidly pelleted in a microcentrifuge, and the supernatant is kept at -20° C. for future determination of LTB4 content via the radioimmunoassay.

5-lipoxygenase = target: T1, 5-lipoxygenase (Cavia porcellus, UniProt A0A286X958); test: 5-Lipoxygenase (5-LO) Assay: 5-HETE formation in supernatant of guinea pig PMNL sonicate; assay type: biochemical
T1 construct: 0.2 ml of the supernatant obtained from the PMNL sonicate; endogenous in cells; host or cells: casein-elicited guinea pig peritoneal polymorphonuclear leukocytes (PMNL), sonicate, 30,000 x g supernatant
T1 sequence (A0A286X958 1-674): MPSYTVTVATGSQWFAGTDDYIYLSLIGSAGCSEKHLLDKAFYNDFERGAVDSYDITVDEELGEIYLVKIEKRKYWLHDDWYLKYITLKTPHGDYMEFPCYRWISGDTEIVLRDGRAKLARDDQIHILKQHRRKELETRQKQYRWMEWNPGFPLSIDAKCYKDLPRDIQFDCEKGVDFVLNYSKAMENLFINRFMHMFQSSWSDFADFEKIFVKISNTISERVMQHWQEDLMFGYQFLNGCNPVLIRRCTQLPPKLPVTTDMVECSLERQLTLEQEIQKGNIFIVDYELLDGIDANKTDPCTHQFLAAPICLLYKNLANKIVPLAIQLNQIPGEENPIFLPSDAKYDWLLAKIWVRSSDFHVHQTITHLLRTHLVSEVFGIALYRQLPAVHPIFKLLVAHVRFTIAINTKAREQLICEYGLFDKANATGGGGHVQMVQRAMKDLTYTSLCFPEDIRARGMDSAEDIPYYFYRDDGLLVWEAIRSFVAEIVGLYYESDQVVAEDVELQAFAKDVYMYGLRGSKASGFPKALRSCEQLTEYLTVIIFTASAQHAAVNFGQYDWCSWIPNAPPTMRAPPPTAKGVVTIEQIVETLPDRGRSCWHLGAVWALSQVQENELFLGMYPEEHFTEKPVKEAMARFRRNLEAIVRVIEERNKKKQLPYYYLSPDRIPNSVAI
Experimental: Ten milliliters of a 2% casein solution is injected intraperitoneally to guinea pigs weighing 250-300 gm. After 16-18 hours, the guinea pigs are killed by suffocation in a carbon dioxide chamber. The peritoneal cavity is infused with 70 ml of saline and 40-50 ml of the fluid is recovered from the cavity. After centrifugation, cell pellets are washed twice in Hank's balanced salt solution (HBSS) without calcium ion.
The cells are then suspended in 5 ml of sodium phosphate buffer, pH 7.1 containing 1 mM, ethylene diamine tetraacetic acid (EDTA), and 0.1% gelatin. About 20-30×10^7 cells are obtained from one guinea pig.
The PMNL suspension is disrupted by five 1/2-second pulse sonication at the setting of 3 in a Branson Sonifier, Model 350, equipped with a microtip. The sonicates are combined and centrifuged at 30,000 ×g for 10 minutes. The supernatant is kept frozen at -70° C. until use.
Enzyme activity is determined by assaying for 5-hydroxy-6,8,11,14-eicosatetraenoic acid (5-HETE) formation by first incubating 0.2 ml of the supernatant obtained from the PMNL sonicate with the test compound, 1 mM CaCl2, 2 mM ATP, and 1 mM GSH for 5 minutes at 37° C. The mixture is treated with […] ^14 C-arachidonic acid and incubated at 37° C. an additional 10 minutes. The enzyme reaction is then stopped by the addition of 10 μl of 1M citric acid and 10 μl of an alcohol solution containing 20 mg/ml each of indomethacin and butylated hydroxyanisole (BHA). The reaction mixture is spotted (50 μl) on a silica gel plate (Baker TLC plate S1250-PA-19C) and subjected to TLC in a solvent system of ethyl acetate/2,2,4-trimethylpentane/glacialacetic acid/H2 O (90:50:20:100).
The radioactivity of the arachidonic acid and its metabolites (5-HETE and LTB4) is visualized from a developed x-ray film which had been exposed to the TLC plate 1-2 days. The amount of 5-HETE formed is quantitated by scraping the silica gel area corresponding to the spot on the x-ray film, and the radioactivity determined in a Isocap/300 liquid scintillation counter (Searle Analytic, Inc.).
The percent inhibition of the formation of 5-HETE is determined for each concentration of compound tested as compared to a control experiment wherein no test compound is added. The concentration and percent values are plotted on semi log paper and the concentration in which formation of 5-HETE is inhibited by 50% (IC50) is determined by interpolation.

[2] = Table II, guinea pig PMNL sonicate supernatant, 14C-arachidonic acid, 37° C., read-out: 5-LO (concentration in which formation of 5-HETE is inhibited by 50%, IC50)
[3] = second table (Table III), known hydroxamic acid derivatives as comparison, read-out: 5-Lo (IC50)

| Compound | IC50 (5-lipoxygenase; [2]) [nM] | IC50 ([1]; Leukocyte, 10 min) [nM] | further results |
| --- | --- | --- | --- |
| 2-methylsulfonyl-4-n-hexyl-N-hydroxy-N-methylcinnamamide [Example 22] | 148 | – | IC50 [1]: 204 nM |
| C=CCCSc1ccccc1C=CC(=O)N(C)O [Example 2] | 44 | 12 | – |
| CCCCCCSc1ccccc1C=CC(=O)N(C)O [Example 3, 2-n-hexylthio-N-hydroxy-N-methylcinnamamide] | 17 | 9 | – |
| CCCCc1ccccc1C=CC(=O)N(C)O [Example 4, 2-n-butyl-N-hydroxy-N-methylcinnamamide] | 72 | 75 | – |
| CN(O)C(=O)C=Cc1ccccc1SCCCC(F)(F)F [Example 5, 2-[1-(3-trifluoromethylpropyl)thio]-N-hydroxy-N-methylcinnamamide] | 32 | 24 | – |
| CSc1cc(CCCc2ccccc2)ccc1C=CC(=O)N(C)O [Example 6, 2-methylthio-4-(3-phenylpropyl)-N-hydroxy-N-methylcinnamamide] | 7 | – | – |
| CCCCSc1cc(C(F)(F)F)ccc1C=CC(=O)N(C)O [Example 7, 2-n-butylthio-4-trifluoromethyl-N-hydroxy-N-methylcinnamamide] | 24 | – | – |
| CCCCc1cc(SC)ccc1C=CC(=O)N(C)O [Example 8, 2-n-butyl-4-methylthio-N-hydroxy-N-methylcinnamamide] | 23 | – | – |
| CCCCCCc1ccc(S(C)(=O)=O)c(C=CC(=O)N(C)O)c1 [Example 9, 2-methylsulfonyl-5-n-hexyl-N-hydroxy-N-methylcinnamamide] | 90 | 259 | – |
| CCCCCCc1ccc(C=CC(=O)N(C)O)c([S+](C)[O-])c1 (stereo not shown) [Example 10, 2-methylsulfinyl-4-n-hexyl-N-hydroxy-N-methylcinnamamide] | 97 | 118 | – |
| CCCCCCc1ccc([S+](C)[O-])c(C=CC(=O)N(C)O)c1 (stereo not shown) [Example 11, 2-methylsulfinyl-5-n-hexyl-N-hydroxy-N-methylcinnamamide] | 96 | 71 | – |
| CN(O)C(=O)C=Cc1ccc(S(C)(=O)=O)cc1Cc1ccccc1 [Example 12, 2-benzyl-4-methylsulfonyl-N-hydroxy-N-methylcinnamamide] | 695 | – | – |
| CSc1ccc(C=CC(=O)N(C)O)c(Cc2ccccc2)c1 [Example 13, 2-benzyl-4-methylthio-N-hydroxy-N-methylcinnamamide] | 23 | – | – |
| CSc1ccc(Cc2ccccc2C=CC(=O)N(C)O)cc1 [Example 14, 2-(4-methylthiobenzyl)-N-hydroxy-N-methylcinnamamide] | 31 | – | – |
| CN(O)C(=O)C=Cc1ccccc1Cc1ccc(S(C)(=O)=O)cc1 [Example 15, 2-(4-methylsulfonylbenzyl)-N-hydroxy-N-methylcinnamamide] | 490 | – | – |
| CN(O)C(=O)C=Cc1ccc(CCCc2ccccc2)cc1S(C)(=O)=O [Example 16, 2-methylsulfonyl-4-(3-phenylpropyl)-N-hydroxy-N-methylcinnamamide] | 74 | – | – |
| CCCCCCc1cccc(C=CC(=O)N(C)O)c1SC [Example 17, 2-(methylthio)-3-n-hexyl-N-hydroxy-N-methylcinnamamide] | 59 | 150 | – |
| CN(O)C(=O)C=Cc1ccccc1SC(C)(C)C [Example 18, 2-tert-butylthio-N-hydroxy-N-methyl-cinnamamide] | 175 | – | – |
| CCCCCCc1ccc(C=CC(=O)N(C)O)c(SC)c1 [Example 19, 2-methylthio-4-n-hexyl-N-hydroxy-N-methylcinnamamide] | 82 | 25 | – |
| CCCCCCc1cccc(C=CC(=O)N(C)O)c1[S+](C)[O-] (stereo not shown) [Example 20, 2-methylsulfinyl-3-n-hexyl-N-hydroxy-N-methylcinnamamide] | 459 | 190 | – |
| CCCCCCc1cccc(C=CC(=O)N(C)O)c1S(C)(=O)=O [Example 21, 2-methylsulfonyl-3-n-hexyl-N-hydroxy-N-methylcinnamamide] | 166 | 461 | – |
| CN(O)C(=O)C=Cc1ccccc1-c1ccccc1 [Example 24, 2-phenyl-N-hydroxy-N-methylcinnamamide] | 131 | – | – |
| CN(O)C(=O)C=Cc1ccccc1SCCc1ccccc1 [Example 25, 2-[1-(2-phenylethyl)thio]-N-hydroxy-N-methyl-cinnamamide] | 14 | – | – |
| CSc1ccccc1C(=O)N(C)O [reference compound] | – | – | IC50 (5-lipoxygenase; [3]): 44000 nM |
| CSc1ccc(CCCc2ccccc2)cc1C(=O)N(C)O [reference compound] | – | – | IC50 (5-lipoxygenase; [3]): 592 nM |
| CCc1ccc(CCCc2ccccc2)cc1C(=O)N(C)O [reference compound] | – | – | IC50 (5-lipoxygenase; [3]): 550 nM |

Continued, in another order:

| IC50 (5-lipoxygenase; [2]) [nM] | IC50 ([1]; Leukocyte, 10 min) [nM] | Compound | further results |
| --- | --- | --- | --- |
| 14 | – | CN(O)C(=O)C=Cc1ccccc1SCC1CCCCC1 [Example 26, 2-cyclohexylmethylthio-N-hydroxy-N-methylcinnamamide] | – |
| 8 | – | CCCCSc1ccccc1C=CC(=O)N(O)C(C)C [Example 28, 2-n-butylthio-N-hydroxy-N-isopropylcinnamamide] | – |
| 8400 | – | CN(O)C(=O)C=Cc1ccc(CCCc2ccccc2)cc1[S+](C)[O-] (stereo not shown) [Example 32, 2-methylsulfinyl-4-(3-phenylpropyl)-N-hydroxy-N-methylcinnamamide] | – |
| 1100 | – | CCCCS(=O)(=O)c1ccccc1C=CC(=O)N(C)O [Example 34, 2-n-butylsulfonyl-N-hydroxy-N-methylcinnamamide] | – |
| 2440 | – | CCCC[S+]([O-])c1ccccc1C=CC(=O)N(C)O (stereo not shown) [Example 36, 2-n-butylsulfinyl-N-hydroxy-N-methylcinnamamide] | – |
| 33 | – | CN(O)C(=O)C=Cc1ccccc1SCCCCCCc1ccccc1 [Example 39, 2-[10(6-phenylhexyl)thio]-N-hydroxy-N-methylcinnamamide] | – |
| 160 | – | CN(O)C(=O)C=Cc1cc(CCCc2ccccc2)ccc1[S+](C)[O-] (stereo not shown) [Example 41, 2-methylsulfinyl-5-(3-phenylpropyl)-N-hydroxy-N-methylcinnamamide] | – |
| 304 | – | CN(O)C(=O)C=Cc1cc(CCCc2ccccc2)ccc1S(C)(=O)=O [Example 42, 2-methylsulfonyl-5-(3-phenylpropyl)-N-hydroxy-N-methylcinnamamide] | – |
